IC50 data for 73 compounds are collected here from patent US12692241B2, “Substituted triazine compound” (Nico Therapeutics, Inc., priority 2021, dated 2026).

As usually defined, the IC50 is the concentration that inhibits the measured activity by half.

This assay has as its system IL-1β production in THP-1 cells (LPS and ATP; NLRP3 inflammasome activation). Nature of the assay: THP-1 IL-1β production inhibitory test. Type of assay: cell-based, human. The settings on record: Homo sapiens, THP-1, 2 h, PMA-differentiated THP-1 cells, LPS 50 ng/mL and ATP 5 mM, 2 hours, ELISA; read-out: IC50 (nM), IL-1β production. The protocol: THP-1 IL-1β Production Inhibitory Test
To THP-1 cells, 50 ng/mL PMA (phorbol myristate acetate, SIGMA, P1585) was added at 37° C. and then the cells were cultured for 2 days. […] The cells were cultured at 37° C. for 15 minutes. LPS (lipopolysaccharide, SIMGA, L2880) and ATP (adenosine triphosphate, SIGMA, A2383) were added such that the final concentrations of them became 50 ng/mL and 5 mM, respectively. The cells were cultured at 37° C. for 2 hours. The supernatant was collected and the concentration of IL-1β was measured by ELISA (DuoSet ELISA human IL-1β, R&D Systems, DY201). The concentration of IL-1β was plotted against the logarithm of the concentration of the test compound, and the IC50 value was calculated by sigmoidal Emax model nonlinear regression analysis.
Take `Cc1nc(N[C@@H]2CCCC[C@H]2O)nnc1-c1ccc(C(F)(F)F)cc1O` [Example 1, 2-(3-{[(1R,2R)-2-hydroxycyclohexyl]amino}-5-methyl-1,2,4-triazin-6-yl)-5-(trifluoromethyl)phenol]: the IC50 came to 7.6 nM.

As for `Cc1nc(NC[C@H](C)CO)nnc1-c1ccc(C(F)(F)F)cc1O` [Example 2], the IC50 came to 32 nM.

Take `Cc1nc(NCCCO)nnc1-c1ccc(C(F)(F)F)cc1O` [Example 3]: the IC50 is 69 nM.

For the compound `Cc1nc(NC[C@@H](C)O)nnc1-c1ccc(C(F)(F)F)cc1O` [Example 4], the half-maximal inhibitory concentration (IC50) was found to be 35 nM.

For `Cc1nc(N[C@@H]2CCC[C@H]2O)nnc1-c1ccc(C(F)(F)F)cc1O` [Example 5], the IC50 was found to be 21 nM.

`Cc1nc(NC2CCCCC2)nnc1-c1ccc(C(F)(F)F)cc1O` [Example 6]: the IC50 was 26 nM.

Regarding `Cc1nc(N[C@H]2CCC(F)(F)C2)nnc1-c1ccc(C(F)(F)F)cc1O` [Example 7], the IC50 came to 28 nM.

In the case of `Cc1nc(NC2CC(C)(O)C2)nnc1-c1ccc(C(F)(F)F)cc1O` (stereo not shown) [Example 8], the IC50 worked out at 6.9 nM.

For `Cc1nc(NCC(C)(C)CO)nnc1-c1ccc(C(F)(F)F)cc1O` [Example 9], the IC50 stood at 59 nM.

For `CO[C@H](C)CNc1nnc(-c2ccc(C(F)(F)F)cc2O)c(C)n1` [Example 10], the IC50 came to 40 nM.

`Cc1nc(N[C@@H]2CCOC[C@H]2O)nnc1-c1ccc(C(F)(F)F)cc1O` [Example 11]: the IC50 was 15 nM.

On to `Cc1nc(NC2CCS(=O)(=O)CC2)nnc1-c1ccc(C(F)(F)F)cc1O` [Example 12], for which the IC50 was 53 nM.

As for `Cc1nc(N[C@H]2C[C@](C)(O)C2)nnc1-c1ccc(C(F)(F)F)cc1O` [Example 13], the half-inhibitory concentration (IC50) amounted to 260 nM.

On to `CC[C@@H](O)CNc1nnc(-c2ccc(C(F)(F)F)cc2O)c(C)n1` [Example 14], for which the IC50 turned out to be 62 nM.

As for `Cc1nc(NCC2(CO)CCC2)nnc1-c1ccc(C(F)(F)F)cc1O` [Example 15], the concentration for half-maximal inhibition (IC50) was found to be 100 nM.

In the case of `Cc1nc(N[C@@H]2COC[C@H]2O)nnc1-c1ccc(C(F)(F)F)cc1O` [Example 16], the IC50 was 88 nM.

Take `Cc1nc(NCC2(O)CCC2)nnc1-c1ccc(C(F)(F)F)cc1O` [Example 17]: the half-maximal inhibitory concentration (IC50) stood at 66 nM.

Turning to `Cc1nc(NC[C@@H]2CCCO2)nnc1-c1ccc(C(F)(F)F)cc1O` [Example 18], the IC50 worked out at 88 nM.

For `Cc1nc(N[C@@H]2CCCC[C@H]2O)nnc1-c1ccc(Cl)cc1O` [Example 19], the half-inhibitory concentration (IC50) was found to be 7.4 nM.

Regarding `Cc1nc(N[C@H]2CCCC[C@H]2O)nnc1-c1ccc(C(F)(F)F)cc1O` [Example 20], the IC50 amounted to 34 nM.

Turning to `Cc1nc(N[C@@H]2COCC[C@H]2O)nnc1-c1ccc(C(F)(F)F)cc1O` [Example 21], the IC50 was 290 nM.

Consider `Cc1nc(NC2CC3(CC(O)C3)C2)nnc1-c1ccc(C(F)(F)F)cc1O` (stereo not shown) [Example 22], for which the IC50 was determined as 13 nM.

For `Cc1nc(NC2(CO)CCC2)nnc1-c1ccc(C(F)(F)F)cc1O` [Example 23], the IC50 worked out at 23 nM.

Turning to `Cc1nc(N[C@H]2[C@@H]3COC[C@@H]32)nnc1-c1ccc(C(F)(F)F)cc1O` [Example 24], the IC50 came out at 40 nM.

On to `Cc1nc(N[C@@H]2CCCC[C@H]2O)nnc1-c1ccc(C#N)cc1O` [Example 25], for which the IC50 worked out at 77 nM.

For the compound `Cc1nc(N[C@H]2CC[C@H](O)CC2)nnc1-c1ccc(C(F)(F)F)cc1O` [Example 26], the IC50 amounted to 62 nM.

Turning to `Cc1nc(NCc2cccnn2)nnc1-c1ccc(C(F)(F)F)cc1O` [Example 28], the IC50 worked out at 630 nM.

`Cc1nc(NC2(CO)COC2)nnc1-c1ccc(C(F)(F)F)cc1O` [Example 29]: the half-maximal inhibitory concentration (IC50) is 84 nM.

On to `Cc1nc(N[C@@H]2CC[C@@H](O)C2)nnc1-c1ccc(C(F)(F)F)cc1O` [Example 30], for which the IC50 was 18 nM.

Regarding `Cc1nc(N[C@@H]2CCOC[C@H]2O)nnc1-c1ccc(OC(F)(F)F)cc1O` [Example 32], the IC50 is 10 nM.

For `Cc1nc(NC(C)(C)CO)nnc1-c1ccc(C(F)(F)F)cc1O` [Example 33], the 50% inhibitory concentration (IC50) worked out at 150 nM.

As for `Cc1nc(NC2(CCO)CC2)nnc1-c1ccc(C(F)(F)F)cc1O` [Example 34], the IC50 was 49 nM.

Turning to `Cc1nc(N[C@@H]2CC[C@H](O)C2)nnc1-c1ccc(C(F)(F)F)cc1O` [Example 35], the IC50 turned out to be 50 nM.

Consider `Cc1nc(N[C@@H]2CCCC[C@H]2O)nnc1-c1ccc(C(C)C)cc1O` [Example 36], for which the IC50 worked out at 17 nM.

Take `Cc1ccc(-c2nnc(N[C@@H]3CCCC[C@H]3O)nc2C)c(O)c1` [Example 37]: the IC50 came to 11 nM.

As to `Cc1nc(NC23CC(CO)(C2)C3)nnc1-c1ccc(C(F)(F)F)cc1O` [Example 38], the IC50 was 11 nM.

For `Cc1nc(N[C@@H]2C[C@H]3C[C@@H]2[C@@H](O)C3)nnc1-c1ccc(C(F)(F)F)cc1O` [Example 39], the IC50 worked out at 19 nM.

Turning to `Cc1nc(N[C@@H]2CCCC[C@@H]2O)nnc1-c1ccc(C(F)(F)F)cc1O` [Example 40], the IC50 came to 22 nM.

On to `Cc1nc(N[C@H]2CCCC[C@@H]2O)nnc1-c1ccc(C(F)(F)F)cc1O` [Example 41], for which the IC50 was found to be 310 nM.

With `Cc1nc(N[C@@H]2CCCNC2=O)nnc1-c1ccc(C(F)(F)F)cc1O` [Example 42], the IC50 was determined as 28 nM.

In the case of `Cc1nc(N[C@@H]2CCNC2=O)nnc1-c1ccc(C(F)(F)F)cc1O` [Example 43], the IC50 was 19 nM.

Turning to `Cc1nc(N[C@H]2CCNC2=O)nnc1-c1ccc(C(F)(F)F)cc1O` [Example 44], the IC50 came out at 7 nM.

On to `Cc1nc(N[C@H]2CCCNC2=O)nnc1-c1ccc(C(F)(F)F)cc1O` [Example 45], for which the IC50 is 24 nM.

For `Cc1nc(N[C@@H]2CCCCNC2=O)nnc1-c1ccc(C(F)(F)F)cc1O` [Example 46], the IC50 came out at 30 nM.

Turning to `Cc1nc(N[C@@H]2CCCC[C@@]2(C)O)nnc1-c1ccc(C(F)(F)F)cc1O` [Example 47], the half-inhibitory concentration (IC50) came to 8.8 nM.

`Cc1nc(N[C@@H]2CCCC(F)(F)[C@H]2O)nnc1-c1ccc(C(F)(F)F)cc1O` [Example 48]: the IC50 worked out at 34 nM.

In the case of `Cc1nc(N[C@H]2C[C@@](C)(O)C2)nnc1-c1ccc(Cl)cc1O` [Example 49], the IC50 is 14 nM.

As to `Cc1nc(N[C@H]2C[C@@](C)(O)C2)nnc1-c1ccc(OC(F)(F)F)cc1O` [Example 50], the IC50 was 31 nM.

Regarding `Cc1ccc(-c2nnc(N[C@H]3C[C@@](C)(O)C3)nc2C)c(O)c1` [Example 51], the IC50 was 33 nM.

As to `Cc1ccc(-c2nnc(N[C@@H]3CCOC[C@H]3O)nc2C)c(O)c1` [Example 52], the IC50 came out at 21 nM.

On to `Cc1nc(N[C@@H]2CCCC[C@H]2O)nnc1-c1ccc(F)cc1O` [Example 53], for which the IC50 was 63 nM.

As for `Cc1nc(N[C@@H]2CCCC[C@@]2(C)O)nnc1-c1ccc(Cl)cc1O` [Example 54], the IC50 was determined as 7.3 nM.

Regarding `Cc1ccc(-c2nnc(N[C@@H]3CCCC[C@@]3(C)O)nc2C)c(O)c1` [Example 55], the IC50 stood at 11 nM.

Turning to `Cc1nc(NC[C@@H](C)O)nnc1-c1ccc(C2CC2)cc1O` [Example 56], the IC50 is 12 nM.

On to `Cc1nc(N[C@@H]2CCCC[C@@]2(C)O)nnc1-c1ccc(OC(F)(F)F)cc1O` [Example 58], for which the IC50 was determined as 9.3 nM.

In the case of `COc1ccc(-c2nnc(N[C@H]3C[C@@](C)(O)C3)nc2C)c(O)c1` [Example 60], the IC50 came to 38 nM.

As to `COc1ccc(-c2nnc(N[C@@H]3CCOC[C@H]3O)nc2C)c(O)c1` [Example 61], the IC50 worked out at 36 nM.

`Cc1nc(N[C@H]2CNC2=O)nnc1-c1ccc(C(F)(F)F)cc1O` [Example 62]: the concentration for half-maximal inhibition (IC50) came out at 28 nM.

Take `Cc1nc(N[C@@H]2CNC(=O)C2)nnc1-c1ccc(C(F)(F)F)cc1O` [Example 63]: the IC50 is 200 nM.

For the compound `Cc1nc(N[C@H]2CC[C@]2(C)O)nnc1-c1ccc(C(F)(F)F)cc1O` [Example 64], the IC50 came to 62 nM.

In the case of `Cc1nc(N[C@@H]2CNC2=O)nnc1-c1ccc(C(F)(F)F)cc1O` [Example 65], the half-inhibitory concentration (IC50) stood at 110 nM.

As for `Cc1nc(N[C@H]2CNC(=O)C2)nnc1-c1ccc(C(F)(F)F)cc1O` [Example 66], the IC50 is 150 nM.

Regarding `Cc1nc(N[C@@H]2CCCC[C@H]2O)nnc1-c1ccc(C2CC2)cc1O` [Example 67], the IC50 came out at 9.6 nM.

On to `Cc1nc(NC[C@H](O)C(F)(F)F)nnc1-c1ccc(C(F)(F)F)cc1O` [Example 68], for which the IC50 is 57 nM.

With `Cc1nc(N[C@@H]2CCC(F)(F)C[C@H]2O)nnc1-c1ccc(C(F)(F)F)cc1O` [Example 69], the IC50 came out at 30 nM.

As for `Cc1nc(N[C@H]2CCNC2=O)nnc1-c1ccc(Cl)cc1O` [Example 70], the half-maximal inhibitory concentration (IC50) turned out to be 10 nM.

Consider `Cc1ccc(-c2nnc(N[C@H]3CCNC3=O)nc2C)c(O)c1` [Example 71], for which the IC50 was found to be 8.2 nM.

On to `Cc1nc(N[C@H]2CCNC2=O)nnc1-c1ccc(OC(F)(F)F)cc1O` [Example 72], for which the IC50 is 8.3 nM.

With `Cc1nc(N[C@H]2CCN(C)C2=O)nnc1-c1ccc(C(F)(F)F)cc1O` [Example 74], the IC50 turned out to be 620 nM.

Regarding `Cc1nc(N[C@@H]2CCCCC[C@H]2O)nnc1-c1ccc(C(F)(F)F)cc1O` [Example 76], the IC50 came to 16 nM.

`Cc1nc(N[C@H]2C[C@@](C)(O)C2)nnc1-c1ccc(C2CC2)cc1O` [Example 77]: the IC50 is 67 nM.

For the compound `Cc1nc(N[C@@H]2CCOC[C@H]2O)nnc1-c1ccc(C2CC2)cc1O` [Example 78], the IC50 was determined as 27 nM.

Take `Cc1nc(N[C@@H]2CCCC[C@@H](O)C2)nnc1-c1ccc(C(F)(F)F)cc1O` [Example 79]: the half-maximal inhibitory concentration (IC50) came to 14 nM.
